Data taken from US11708562B2, “Differentiation of human embryonic stem cells” (Janssen Biotech, Inc., priority 2006, dated 2023).

System: H9P33, H9P44 and H9P48 cells
Test: Microarray analysis of definitive endoderm on MEFs vs MATRIGEL +/- Wnt-3A (Table VI)
Conditions: DE treatment in low serum
Method: Controls for each group included cells plated on […]-coated dishes and cultured in MEF-conditioned medium or cells plated on MEFs and cultured in ES medium. All groups contained three biological replicates and each biological replicate was repeated on two separate gene chips.
Sample preparation, hybridization, and image analysis were performed according to the Affymetrix Human Genome U133 Plus 2.0 Array. Following normalization and a log transformation, data analysis was performed using OmniViz® software (MA) and […] (VizXLabs, WA). Significant differences in gene expression between the samples were evaluated using analysis of variance and an F-test with adjusted P-value (Benjamini and Hochberg correction) of ≤0.05. Only genes with a present call in at least one group were included in the analysis.

Activin A: a member of the TGFβ superfamily; growth factor (R&D Systems) used to differentiate human embryonic stem cells
mean normalized intensity (log format), Human (clone HSY3RR) neuropeptide Y receptor (NPYR) mRNA (on MATRIGEL): 1.775 | mean normalized intensity (log format), Human DNA sequence from clone RP1-181C24 on chromosome 6p11.1-12.2 (3 end of the BMP5 gene) (on MATRIGEL): −3.723 | mean normalized intensity (log format), Human Fritz mRNA, complete cds (on MATRIGEL): 0.4366 | mean normalized intensity (log format), Human dipeptidyl peptidase IV (CD26) mRNA (on MATRIGEL): −3.611 | mean normalized intensity (log format), Human glycophorin HeP2 mRNA, partial cds (on MATRIGEL): −0.8435 | mean normalized intensity (log format), Human link protein mRNA, complete cds (on MATRIGEL): −1.94 | mean normalized intensity (log format), Human mRNA for alpha-1 type II collagen (on MATRIGEL): −2.8736 | mean normalized intensity (log format), Human mRNA for apolipoprotein AI (apo AI) (on MATRIGEL): 0.2151 | mean normalized intensity (log format), Human prostatic secretory protein 57 mRNA (on MATRIGEL): −3.013 | mean normalized intensity (log format), KIAA0878 protein (on MATRIGEL): 1.1189 | mean normalized intensity (log format), KIAA1462 protein (on MATRIGEL): −3.846 | mean normalized intensity (log format), MCP-1 = monocyte chemotactic protein (on MATRIGEL): −2.276 | mean normalized intensity (log format), Rho GDP dissociation inhibitor (GDI) alpha (on MATRIGEL): −1.544 | mean normalized intensity (log format), WAS protein family, member 2 (on MATRIGEL): −2.187 | mean normalized intensity (log format), collagen, type IX, alpha 2 (on MATRIGEL): 1.27 | mean normalized intensity (log format), collagen, type VI, alpha 1 (on MATRIGEL): −1.418 | mean normalized intensity (log format), glycophorin B (includes Ss blood group) (on MATRIGEL): −2.852 | mean normalized intensity (log format), hepatocyte nuclear factor 4, alpha (on MATRIGEL): −4.266 | mean normalized intensity (log format), homeo box HB9 (on MATRIGEL): −1.656 | mean normalized intensity (log format), hypothetical protein FLJ21032 (on MATRIGEL): 0.3557 | mean normalized intensity (log format), hypothetical protein FLJ23091 (on MATRIGEL): 0.3234 | mean normalized intensity (log format), hypothetical protein FLJ23403 (on MATRIGEL): −1.456 | mean normalized intensity (log format), matrix metalloproteinase 14 (membrane-inserted) (on MATRIGEL): −2.057 | mean normalized intensity (log format), microfibrillar-associated protein 4 (on MATRIGEL): 0.06379 | mean normalized intensity (log format), myristoylated alanine-rich protein kinase C substrate (MARCKS, 80K-L) (on MATRIGEL): −0.7172 | mean normalized intensity (log format), neuropilin 1 (on MATRIGEL): −1.623 | mean normalized intensity (log format), noggin (on MATRIGEL): −1.636 | mean normalized intensity (log format), phorbolin-like protein MDS019 (on MATRIGEL): −1.118 | mean normalized intensity (log format), solute carrier family 16 (monocarboxylic acid transporters), member 3 (on MATRIGEL): −0.06641 | mean normalized intensity (log format), splicing factor, arginineserine-rich 5 (on MATRIGEL): 0.7481 | mean normalized intensity (log format), stanniocalcin 1 (on MATRIGEL): 2.411 | mean normalized intensity (log format), 6-phosphofructo-2-kinasefructose-2,6-biphosphatase 4 (on MEFS): 1.6 | mean normalized intensity (log format), Cluster Incl. AB028021: Homo sapiens HNF-3beta mRNA for hepatocyte nuclear factor-3 beta (on MEFS): 4.117 | mean normalized intensity (log format), ESTs, Highly similar to IHH_HUMAN INDIAN HEDGEHOG PROTEIN PRECURSOR (H. sapiens) (on MEFS): 0.5905 | mean normalized intensity (log format), ESTs, Moderately similar to JE0284 Mm-1 cell derived transplantability-associated protein 1b (H. sapiens) (on MEFS): 4.222 | mean normalized intensity (log format), ESTs, Weakly similar to FCE2 MOUSE LOW AFFINITY IMMUNOGLOBULIN EPSILON FC RECEPTOR (M. musculus) (on MEFS): 3.48 | mean normalized intensity (log format), ESTs, Weakly similar to the 331st table hypothetical protein KIAA0555 (H. sapiens) (on MEFS): 0.4436 | mean normalized intensity (log format), G protein-coupled receptor (on MEFS): 5.053 | mean normalized intensity (log format), G protein-coupled receptor 49 (on MEFS): 2.505 | mean normalized intensity (log format), Homo sapiens HNF-3beta mRNA for hepatocyte nuclear factor-3 beta (on MEFS): 2.825 | mean normalized intensity (log format), Homo sapiens KIAA0878 protein (KIAA0878), mRNA (on MEFS): 5.654 | mean normalized intensity (log format), Homo sapiens Kell blood group (KEL), mRNA (on MEFS): −0.3839 | mean normalized intensity (log format), Homo sapiens MLL septin-like fusion (MSF), mRNA (on MEFS): −1.5 | mean normalized intensity (log format), Homo sapiens Mix-like homeobox protein 1 (MILD1) mRNA (on MEFS): 0.922 | mean normalized intensity (log format), Homo sapiens Rho GTPase activating protein 6 (ARHGAP6), transcript variant 2, mRNA (on MEFS): −1.285 | mean normalized intensity (log format), Homo sapiens TBX3-iso protein (TBX3-iso), mRNA (on MEFS): 1.07 | mean normalized intensity (log format), Homo sapiens angiopoietin 2 (ANGPT2), mRNA (on MEFS): 0.5968 | mean normalized intensity (log format), Homo sapiens ankyrin-like with transmembrane domains 1 (ANKTM1), mRNA (on MEFS): 2.819 | mean normalized intensity (log format), Homo sapiens apolipoprotein A-I (APOA1), mRNA (on MEFS): 2.469 | mean normalized intensity (log format), Homo sapiens apolipoprotein A-II (APOA2), mRNA (on MEFS): 4.469 | mean normalized intensity (log format), Homo sapiens arylsulfatase E (chondrodysplasia punctata 1) (ARSE), mRNA (on MEFS): 3.184 | mean normalized intensity (log format), Homo sapiens atrophin-1 interacting protein 1; activin receptor interacting protein 1 (KIAA0705), mRNA (on MEFS): −1.32 | mean normalized intensity (log format), Homo sapiens beta-site APP cleaving enzyme (BACE) mRNA (on MEFS): 1.754 | mean normalized intensity (log format), Homo sapiens cDNA FLJ11550 fis, clone HEMBA1002970 (on MEFS): 4.216 | mean normalized intensity (log format), Homo sapiens cDNA FLJ12993 fis, clone NT2RP3000197 (on MEFS): 2.069 | mean normalized intensity (log format), Homo sapiens cDNA FLJ13221 fis, clone NT2RP4002075 (on MEFS): 1.31 | mean normalized intensity (log format), Homo sapiens cardiac ventricular troponin C mRNA (on MEFS): 1.4377 | mean normalized intensity (log format), Homo sapiens cartilage linking protein 1 (CRTL1), mRNA (on MEFS): −0.8052 | mean normalized intensity (log format), Homo sapiens cell adhesion molecule with homology to L1CAM (close homologue of L1) (CHL1), mRNA (on MEFS): −2.5002 | mean normalized intensity (log format), Homo sapiens chromosome 19, cosmid R31181 (on MEFS): 0.2239 | mean normalized intensity (log format), Homo sapiens clone 23736 mRNA sequence (on MEFS): 4.507 | mean normalized intensity (log format), Homo sapiens cryptic mRNA, complete cds (on MEFS): −0.6735 | mean normalized intensity (log format), Homo sapiens cystatin SA (CST2), mRNA (on MEFS): 2.1671 | mean normalized intensity (log format), Homo sapiens cystatin SN (CST1), mRNA (on MEFS): 4.64 | mean normalized intensity (log format), Homo sapiens cytidine deaminase (CDA), mRNA (on MEFS): −1.67 | mean normalized intensity (log format), Homo sapiens dual specificity phosphatase 4 (DUSP4), mRNA (on MEFS): 4.122 | mean normalized intensity (log format), Homo sapiens fibroblast growth factor 8 (androgen-induced) (FGF8), mRNA (on MEFS): 0.01583 | mean normalized intensity (log format), Homo sapiens fibroblast growth factor 17 (FGF17), mRNA (on MEFS): 2.4872 | mean normalized intensity (log format), Homo sapiens frizzled-related protein (FRZB), mRNA (on MEFS): 3.676 | mean normalized intensity (log format), Homo sapiens gastrin-releasing peptide (GRP), mRNA (on MEFS): 0.5098 | mean normalized intensity (log format), Homo sapiens glycophorin B (includes Ss blood group) (GYPB), mRNA (on MEFS): 0.1803 | mean normalized intensity (log format), Homo sapiens glycophorin E (GYPE), mRNA (on MEFS): −1.501
